Measurements as given in patent publication US20060083711A1, “Methods and products related to the intracellular delivery of polysaccharides” (Massachusetts Institute of Technology, priority 2004, published 2006).
Several values for one entry are separate records, joined by “and”; a condition that tells them apart may be missing. Equal values may be shown once. Entries after “also recorded” stand apart in the source; their conditions may differ.

Assays:
[1] = test system: PC-3 cells; assay: PC-3 proliferation assay (whole cell number); assay type: cell-based, human; conditions: for effect of kinase inhibitor on heparin-mediated growth inhibition: 50 μM LY294002, 20 μM PD98059, 20 μM U0126, 1 μM SB203580, heparin 500 ng/ml
Protocol: PC-3 cells were grown until confluence in 75 cm^2 flasks. Each flask was washed with 20 ml PBS, and treated with 3 ml trypsin-EDTA at 37° C. for 3-5 minutes, until cells detached. Cells were centrifuged for 3 min at 195×g. The supernatant was aspirated, and the cells were resuspended in 10 ml media. The cell density was measured using an electronic cell counter, and the suspension was diluted to 50,000 cells/ml. The suspension was plated 1 ml/well into 24-well tissue culture plates. After a 24 hour incubation in a 5% CO2, 37° C. humidified incubator, the media was aspirated, the wells were washed with serum free media, and the cells were supplemented with media containing 0.1% FBS and incubated for 24 hours. Cells were sequentially treated with antibodies, kinase inhibitors, heparin, and FGF2. Antibodies to FGF2, FGFR1, or FGFR3 were added to yield a final dilution of 1:100. Kinase inhibitors were added sufficient to yield final concentrations of 50 μM LY294002, 20 μM PD98059, 1 μM SB203580, and 20 μM U0126. Heparin was added at 500 ng/ml unless otherwise noted. To produce heparin digests, heparin was treated with PBS, hepI, or hepIII for 30 minutes, and boiled for 30 minutes. prior to addition to cells. Digestion was verified by UV spectroscopy at 232 nm. FGF2 was added at 100 ng/ml unless otherwise specified. Cells were then incubated for 72 hours. Wells were then washed twice with PBS and treated with 0.5 ml trypsin-EDTA/well and incubated for 10 minutes at 37° C. Whole cell number was determined using an electronic cell counter. Data were averaged over three experiments, each consisting of four wells per condition.
PC-3 cells were grown until confluence in 75 cm^2 flasks. Each flask was washed with 20 ml PBS, and treated with 3 ml trypsin-EDTA at 37° C. for 3-5 minutes, until cells detached. Cells were centrifuged for 3 minutes at 195×g, the supernatant was aspirated, and the cells were resuspended in 10 ml media. The cell suspension was diluted to 50,000 cells/ml based on the readings of an electronic cell counter. The suspension was plated 1 ml/well into 24-well tissue culture plates. After a 24 hour incubation in a 5% CO2, 37° C. humidified incubator, the cells were washed with serum free media, supplemented with media containing 0.1% FBS, and incubated for 24 hours. Cells were treated with heparin, HS or FGF2 as appropriate. Heparin was added at 500 ng/ml unless otherwise noted. FGF2 was added at 100 ng/ml unless otherwise specified. Cells were then incubated for 72 hours. Wells were then washed twice with PBS and treated with 0.5 ml trypsin-EDTA/well and incubated for 10 minutes at 37° C. Whole cell number was determined using an electronic cell counter. Data were averaged over three experiments, each consisting of four wells per condition.
For antibody and kinase inhibitor experiments, antibodies and kinase inhibitors were added prior to HSGAGs or FGF2. […]
To produce heparin digests, heparin was treated with PBS, heparinase I (hepI), or hepIII for 30 minutes, and boiled for 30 prior to addition to cells. Digestion was verified and quantified by UV spectroscopy at 232 nm (27). […]
A preliminary screen was performed on PC-3 cells by proliferation assay using the nine polymers described at polymer:heparin (w/w) ratios of 10:1, 20:1, 30:1, 40:1, and 60:1. The three best formulations (polymer and ratio) were selected and analyzed further. […] In vitro assessment of polymer activity was measured by proliferation assay with a heparin concentration of 1 μg/ml. […]

[2] = test system: Daudi cells; assay: Whole cell proliferation assay; assay type: cell-based, human; conditions: for direct effect of kinase inhibitor on Daudi whole cell number: FBS-deficient media, 50 μM LY294002, 20 μM PD98059, or 1 μM SB203580
Protocol: For proliferation assays using Daudi cells, cells were collected from 75 cm^2 flasks, washed three times with FBS-deficient media or proliferation media, and resuspended into 10 ml of the same media. Cells were diluted to 1×10^5 cells/ml based on the reading of an electronic cell counter, and plated 1 ml/well in 24-well plates. Wells were treated with PBS, heparin, A5, or A5-heparin conjugate in 10 μl volumes, and incubated for 72 hours at 37° C., 5% CO2. A5-heparin conjugates were additionally supplemented with 50 μM LY294002, 20 μM PD98059, or 1 μM SB203580, 50 mM sodium chlorate, or 10 ng/ml FGF2, as appropriate. Whole cell number was converted to a percent growth relative to PBS treatment. Proliferation assays on NFS-1.0 C-1 and J.CaM1.6 cells were performed as described for Daudi cells.
To probe the role of sulfation patterns and fine structure in inducing the effects of A5-heparin conjugates, heparin was partially digested with heparinases prior to conjugation. Heparin was diluted to 20 μg/ml in PBS and incubated with 5 mU/ml hepI or hepIII or an equivalent volume of PBS for 30 minutes. Digestion was confirmed by UV spectroscopy at 232 nm. Digested heparin was subsequently conjugated with A5 as described. A5 binding to the heparin fragments was confirmed using an Azure A competition assay as previously described. Daudi cells, plated as described at 1×10^5 cells/ml in 24-well plates, 1 ml/well, were treated with conjugates at a heparin concentration of 1 μg/ml or an equivalent volume of PBS. After incubating for 72 hours at 37° C., 5% CO2, the resultant whole cell count was determined by electronic cell counter, and data were converted to a percent growth relative to Daudi treated with PBS alone.
To examine the effects of protamine sulfate and heparinases on Daudi growth, cells were collected from 75 cm^2 flasks, pelletted, and resuspended into 10 ml of propagation media. Cells were diluted to 1×10^5 cells/ml based on the reading of an electronic cell counter, and plated 1 ml/well in 24-well plates. Protamine sulfate was added between 1 and 100,000 ng/ml. HepI and hepIII were added between 0.5 and 500 μU/ml for 24, 48, or 72 hours. Whole cell counts from heparinase assays were converted to percent reduction in whole cell number relative to untreated.

[3] = test system: B16-F10 cells; assay: Whole cell proliferation assay; assay type: cell-based, mouse; conditions: 10 ng/ml FGF2
Protocol: Adhesion cells (B16-F10, B16-BL6, SMCs, BAECs, NIH 3T3, SK-ES-1, Panc-1, and SW-1088) were seeded in 24-well plates at 1 ml/well as well as in 6-well plates at 3 ml/well, both at a density of 5×10^4 cells/ml. The plates were incubated for 24 hours at 37° C., 5% CO2. The cells were then washed with PBS and supplemented with media as appropriate. Cells were treated with PBS, heparin, polymer, or polymer-heparin conjugate, in 10 μl quantities at appropriate concentrations. Cells were incubated at 37° C., 5% CO2 for 72 hours, after which, each well was treated with 500 μl (24 well plates) or 1 ml (6 well plates) trypsin-EDTA for 5-15 minutes at room temperature, after which 400 μl was used to count the cell number with an electronic cell counter. […] Panc-1 cells were only tested in 10% FBS. Effects of conjugate were normalized to co-treatment without conjugate.
B16-F10 cells were grown until confluent, washed with PBS, treated with 3 ml trypsin-EDTA per 75 cm^2 tissue culture flask at 37° C. for 3-5 min, pelleted, and resuspended in FBS-deficient media. Cell concentration was determined with an electronic cell counter. […] Cells were treated with PBS, heparin, A5, or A5-heparin conjugate, added in 10 μl quantities, to yield a polymer concentration of 20 μg/ml and a heparin concentration of 1 μg/ml. […]

[4] = test system: Erk1, Erk2 in PC-3 cells; assay: Whole cell ELISA; assay type: cell-based, human; conditions: 10 ng/ml FGF2 or 500 ng/ml heparin; 5, 15, or 60 minutes
Protocol: (§1) ELISA was performed on whole cells to determine a quantifiable relative level of kinase activity. PC-3 cells were grown until confluence in 75 cm^2 flasks. Each flask was washed with 20 ml PBS, and treated with 3 ml trypsin-EDTA at 37° C. for 3-5 minutes, until cells detached. Cells were centrifuged for 3 min at 195×g. The supernatant was aspirated, and the cells were resuspended in 10 ml media. The cell density was measured using an electronic cell counter, and the suspension was diluted to 50,000 cells/ml. 100 mm dishes were supplemented with 10 ml cell suspension per dish. After a 24 hour incubation the media was aspirated, the dishes washed with serum free media, and the cells supplemented with media containing 0.1% FBS and incubated for 24 hours. Dishes were treated with PBS, 10 ng/ml FGF2, or 500 ng/ml heparin for 5, 15, or 60 minutes. Media was then aspirated, the cells were washed with 10 ml PBS, and each dish was treated with 5 ml Trizol reagent. Cell extract was added to 96-well plates previously incubated for 1 hour with primary antibodies to Erk1, Erk2 or phospho-Erk1/2. […] The reaction was quenched with 1 M HCl, and the plates were analyzed using a UV plate reader at 450 nm. Data were quantified by comparing to a standardized curve with varying concentrations of untreated cells.

[5] = test system: phospho-Erk1/2 in PC-3 cells; assay: Whole cell ELISA; assay type: cell-based, human; conditions: 10 ng/ml FGF2; 5, 15, or 60 minutes
Protocol: as §1

[6] = molecular target: FGFR1c on PC-3 cells (human) (UniProt P11362); assay: cell-based or functional assay
UniProt P11362, sequence (P11362 22-822): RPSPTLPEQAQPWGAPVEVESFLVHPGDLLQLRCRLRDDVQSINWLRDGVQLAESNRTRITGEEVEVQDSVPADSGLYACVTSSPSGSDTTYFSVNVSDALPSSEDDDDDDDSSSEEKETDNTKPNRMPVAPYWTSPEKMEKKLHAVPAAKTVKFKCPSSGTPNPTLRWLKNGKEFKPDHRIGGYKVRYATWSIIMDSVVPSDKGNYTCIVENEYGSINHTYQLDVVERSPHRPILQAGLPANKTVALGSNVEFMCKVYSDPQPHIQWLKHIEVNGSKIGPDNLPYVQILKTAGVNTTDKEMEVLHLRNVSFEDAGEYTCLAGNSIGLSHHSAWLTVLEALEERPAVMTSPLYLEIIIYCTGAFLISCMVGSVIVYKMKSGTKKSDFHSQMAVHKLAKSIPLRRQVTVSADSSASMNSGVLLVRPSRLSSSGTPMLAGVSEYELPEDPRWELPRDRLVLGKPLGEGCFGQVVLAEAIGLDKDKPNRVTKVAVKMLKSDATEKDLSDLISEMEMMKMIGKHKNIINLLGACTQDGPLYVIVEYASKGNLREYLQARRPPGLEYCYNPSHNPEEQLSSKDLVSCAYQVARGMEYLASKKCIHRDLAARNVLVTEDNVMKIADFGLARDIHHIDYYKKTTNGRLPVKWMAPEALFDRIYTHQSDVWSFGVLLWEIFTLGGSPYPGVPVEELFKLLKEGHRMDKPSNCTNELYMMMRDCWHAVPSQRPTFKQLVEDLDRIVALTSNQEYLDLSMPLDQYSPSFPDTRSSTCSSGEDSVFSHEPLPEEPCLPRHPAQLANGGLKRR

## COc1cccc(-c2cc(=O)c3ccccc3o2)c1N [PD98059]
[1]
  effect of kinase inhibitor on heparin-mediated growth inhibition: eliminate the ability of heparin to inhibit PC-3 growth; also recorded: prevented heparin-mediated growth inhibition
[2]
  direct effect of kinase inhibitor on Daudi whole cell number: neither inhibition of PI3K with LY294002 (p>0.39) nor inhibition of Erk and Mek with PD98059 (p>0.64) had a direct effect

## C[S+]([O-])c1ccc(-c2nc(-c3ccncc3)c(-c3ccc(F)cc3)[nH]2)cc1 (stereo not drawn) [SB203580]
[1]
  effect of kinase inhibitor on heparin-mediated growth inhibition: did not eliminate the effect of heparin; also recorded: had no effect
[2]
  direct effect of kinase inhibitor on Daudi whole cell number: caused a significant reduction

## N#CC(=C(/N)Sc1ccccc1N)/C(C#N)=C(/N)Sc1ccccc1N [U0126]
[1]
  effect of kinase inhibitor on heparin-mediated growth inhibition: eliminate the ability of heparin to inhibit PC-3 growth; also recorded: prevented heparin-mediated growth inhibition

## FGF2: Recombinant human FGF2
[3]
  inhibition of cell number by FGF2 alone: 26.28±7.23%
[1]; 100 ng/ml FGF2
  increase in proliferation (whole cell number): ~15% and 15.6±3.1%
[1]; FGF2 doses of 50 ng/ml and lower
  proliferation: did not promote significant proliferation
[4]
  Erk1 or Erk2 levels: no significant effect
[5]
  upregulation of phospho-Erk1/2: 2-3 fold
[2]; 10 ng/ml FGF2
  effect on Daudi proliferation: did not affect Daudi proliferation

## Recombinant human FGF2 (from UniProt P09038 135-288) (ligand)
[6]
  increase in proliferation of PC-3 cells at 100 ng/ml FGF2: 15%
  upregulation of phospho-Erk1/2 in PC-3 cells (whole cell ELISA): 2 to 3 fold

## protamine sulfate
[2]; protamine sulfate 1×10^5 ng/ml, media with 10% FBS, three days
  reduction in whole cell number: 12.9±2.8%
[2]; protamine sulfate concentrations less than 1×10^5 ng/ml, 10% FBS
  effect on whole cell number: no effect
